Experimental data taken from patent publication US7700644B2, “Isoflavonoid dimers” (Novogen Research Pty Ltd, priority 2005, dated 2010).

Experiments:
PGE2 synthesis = PGE2 synthesis in human monocytes incubated with LPS; assay type: cell-based; details: LPS 200 ng/mL, 18 hrs, dose responsive
Procedure: (§1) Human peripheral blood monocytes (from three separate individuals) were isolated from buffy coats by lymphoprep gradient separation of mononuclear cells followed by counter-current centrifugal elutriation (Demasi et al. 2000). The test compounds were dissolved in DMSO and added to fresh monocytes After 30 min, LPS was added to achieve a final concentration of 200 ng/mL. After incubation for 18 hrs at 37° C. in 5% CO2, supernatants were removed and PGE2, TXB2 (the stable hydrolysis product of TXA2) and TNFα production were measured by radioimmunoassay (RIA).

TXB2 synthesis = TXB2 synthesis in human monocytes incubated with LPS; assay type: cell-based; details: LPS 200 ng/mL, 18 hrs, dose responsive
Procedure: as §1

TNFα synthesis = TNFα synthesis in human monocytes incubated with LPS; assay type: cell-based; details: LPS 200 ng/mL, 18 hrs
Procedure: as §1

PGE2 = PGE2 in murine macrophages (RAW 264.7) stimulated with LPS; assay type: cell-based, mouse; details: RAW 264.7, LPS 50 ng/ml, 16 hrs, dose responsive
Procedure: (§2) The mouse macrophage cell line RAW 264.7 was cultured in DMEM supplemented with FCS, 2 mM glutamine and 50 U/ml penicillin/streptomycin. Subconfluent cells were detached from the flask by gentle scraping and 24-well plates seeded at 5×10^5 cells per well and allowed to adhere for 1 hr. Cells were then treated either test compounds (in 0.025% DMSO) or vehicle alone, and incubated for 1 hr. LPS 50 ng/ml (LPS —Sigma-Aldrich) was then added. After incubation for 16 hrs, culture media was collected and stored at −80° C. for ecosanoid and cytokine measurements using enzyme immunometric assays (PGE2 and TXB2—Cayman Chemical and TNFα—Becton Dickinson).

TXB2 = TXB2 in murine macrophages (RAW 264.7) stimulated with LPS; assay type: cell-based, mouse; details: RAW 264.7, LPS 50 ng/ml, 16 hrs, dose responsive
Procedure: as §2

[1] = system: UV irradiation-induced skin oedema; assay: Murine model of UV irradiation-induced skin oedema; assay type: in vivo, female Skh:hr-1 albino mice; details: for Change in skin thickness (mean ± SD, ×0.01 mm): dorsal skin fold, topical 0.2 ml of 20 μM at 30 min, 2 h, 4 h
From the text: Groups of 4-5 female Skh:hr-1 albino mice were irradiated with 1×3 MEdD (minimal edematous dose) of solar simulated UV radiation (SSUV). Solar-simulated ultraviolet radiation (SSUV) was provided by a planar bank of 6 UVA tube (Hitachi 40W F40T 10/BL, black light) and one UVB tube (Philips TL 40W/12RS) with radiation filtered through a sheet of 0.125 mm cellulose acetate (Eastman Chemical Products, Kingport, Tenn., USA) to give 2.96×10-4W/cm2 UVA and 1.59×10-5W/cm2 UVB. The distance of the UV lamp from the irradiance table surface was approximately 20 cm and temperature was controlled with an electric fan. During irradiation, the cages were rotated below the lights to reduce the variation in radiation intensity in different positions.
Either test compound (0.2 ml of a 20 μM solution) or vehicle (propylene glycol/ethanol/water 1:2:1) was applied to the irradiated dorsal skin at 30 min, 2 h and 4 h post-irradiation. Dorsal skin fold measurements were made with a spring micrometer prior to and at 24 hr and 48 h post-UV exposure. The difference in skin thickness pre- and post-exposure to UVR was calculated for each mouse, and the differences examined between test compound and vehicle control were analysed using an unpaired two-tailed t test.

splenocytes = assay: Murine splenocyte proliferation with mitogens (MTT), 3 day incubation with compound; assay type: cell-based, Male Skh-1 (hairless) mice
Procedure: Male Skh-1 (hairless) mice, six weeks old were killed by cervical dislocation. Single cell suspensions were made from their spleens and erythrocytes were lysed in buffer (0.14M NH4Cl, 17 mM Tris, pH 7.2). The remaining splenocytes were cultured in RPMI-1640 (Gibco) supplemented with 10% (v:v) FBS, 200 mM L-glutamine, penicillin/streptomycin and […] 2-mercaptoethanol. […] Samples were analysed after a 3 day incubation at 37° C. in 5% CO2 in air. To assess cell numbers, methylthiazoletetrazolium (MTT) was added to each well, incubated for a further 4 hrs and then colour developed with 0.04N HCl in isopropanol (Mosmann 1983). Plates were read at 570 nm and 630 nm. The compounds were examined several times using different mice. For each assay, the effect of test compound was compared with that of vehicle control, and the results compared using a student's t test (Prism). Statistically significant difference was determined to have occurred when p<0.05.

unstimulated splenocytes = assay: Murine splenocytes, 24 hour pre-incubation with compound then mitogenic stimulation; assay type: cell-based, Male Skh-1 (hairless) mice; details: 10 μM
Procedure: Male Skh-1 (hairless) mice, six weeks old were killed by cervical dislocation. Single cell suspensions were made from their spleens and erythrocytes were lysed in buffer (0.14M NH4Cl, 17 mM Tris, pH 7.2). The remaining splenocytes were cultured in RPMI-1640 (Gibco) supplemented with 10% (v:v) FBS, 200 mM L-glutamine, penicillin/streptomycin and […] 2-mercaptoethanol. Splenocytes were added to triplicate wells containing either concanavalin A (ConA, Sigma-Aldrich—0.4 μg/well), lipopolysaccharide (LPS, Sigma-Aldrich—1 μg/well) or no mitogen, as well as 10 μM of either Compound 1 or Compound 2 in DMSO, or DMSO alone. Samples were analysed after a 3 day incubation at 37° C. in 5% CO2 in air. To assess cell numbers, methylthiazoletetrazolium (MTT) was added to each well, incubated for a further 4 hrs and then colour developed with 0.04N HCl in isopropanol (Mosmann 1983). Plates were read at 570 nm and 630 nm. The compounds were examined several times using different mice. For each assay, the effect of test compound was compared with that of vehicle control, and the results compared using a student's t test (Prism). Statistically significant difference was determined to have occurred when p<0.05.
Another assay examined the effect pre-incubating unstimulated splenocytes with test compounds at 10 μM for 24 hours, removing the compounds and then assessing their ability to respond to mitogenic stimulation as described for the previous assay. Cell numbers were assessed after the 24 hr pre-incubation using MTT, and equal numbers of cells/well plated into 96 well plates as usual.

[2] = system: Neonatal foreskin fibroblasts (NFF); assay: Normal cell toxicity, MTT proliferation assay, NFF; assay type: cell-based, human; details: NFF fibroblast, cultured 5 days, MTT
Procedure: Neonatal foreskin fibroblasts (NFF) were a gift from Dr. Peter Parsons (Queensland Institute of Medical Research). RK-13 (rabbit kidney) cells were obtained from Miller Whalley (Macquarie University). Both cell types were cultured in RPMI supplemented with 10% FCS (CSL, Australia), penicillin (100 U/ml), streptomycin ([…]), L-glutamine (2 mM) and sodium bicarbonate (1.2 g/L), and cultured at 37° C. in a humidified atmosphere of 5% CO2.
(§3) IC50 values were determined for each cell line. Cells were seeded in 96-well plates at an appropriate cell density as determined from growth kinetics analysis. NFFs were cultured for 5 days and RK-13s for 24 hrs in the absence and presence of the test compounds. Cell proliferation was assessed after the addition of 20 μl of 3-4,5 dimethylthiazol-2,5-diphenyl tetrazolium bromide (MTT, 2.5 mg/ml in PBS, Sigma) for 3-4 hrs at 37° C. according to manufacturer's instructions. IC50 values were calculated from semi-log plots of % of control proliferation on the y-axis against log dose on the x-axis.
Duplicate cytotoxicity assays against NFF cells were conducted with dehydroequol (DHE), 4,9-dihydroxy-14,15-dimethoxy-12a-(3′,4′-dimethoxyphenyl)-3,10-dimethyl-2,11-dioxa-(1H,12H)-6b,6c,12a,16b-tetrahydronaphtho[1,2-g]chrysene (2) from Example 6.1 and cisplatin.

A2780 (Ovarian) = assay: In vitro cytotoxicity, MTT proliferation assay, A2780; assay type: cell-based, human
Procedure: (§4) The human pancreatic cancer cell line, HPAC (CRL-2119) was routinely cultured in 1:1 mixture DMEM (Sigma) plus Ham's F12 (Sigma) medium containing HEPES (15 mM), insulin (0.002 mg/ml), transferrin (0.005 mg/ml), hydrocortisone, (40 ng/ml), epidermal growth factor (10 ng/ml). The ovarian cancer cell line CP70 was obtained as a gift from Dr. Gil Mor (Yale University) and cultured in a 1:1 mixture DMEM plus Ham's F12 medium, and SKOV-3 was purchased from ATCC and cultured in McCoy's 5a medium. The breast cancer cell line MDA-MB-468 cultured in Leibovitz's L-15 medium.
(§5) All cultures were supplemented with 10% FCS(CSL, Australia), penicillin (100 U/ml), streptomycin ([…]), L-glutamine (2 mM) and sodium bicarbonate (1.2 g/L), and cultured at 37° C. in a humidified atmosphere of 5% CO2. All remaining cell lines were purchased from ATCC (Maryland, USA) except where noted.
as §3

[3] = system: ovarian cancer cell line CP70; assay: In vitro cytotoxicity, MTT proliferation assay, CP70; assay type: cell-based, human
Procedure: as §4, §5, §3

SKOV-3 (Ovarian) = assay: In vitro cytotoxicity, MTT proliferation assay, SKOV-3; assay type: cell-based, human; details: Ovarian SKOV-3
Procedure: as §4, §5, §3

PC3 (Prostate) = assay: In vitro cytotoxicity, MTT proliferation assay, PC3; assay type: cell-based, human
Procedure: as §4, §5, §3

LNCaP (Prostate) = assay: In vitro cytotoxicity, MTT proliferation assay, LNCaP; assay type: cell-based, human
Procedure: as §4, §5, §3

DU145 (Prostate) = assay: In vitro cytotoxicity, MTT proliferation assay, DU145; assay type: cell-based, human
Procedure: as §4, §5, §3

MCF-7 (Breast) = assay: In vitro cytotoxicity, MTT proliferation assay, MCF-7; assay type: cell-based, human; details: Breast MCF-7
Procedure: as §4, §5, §3

[4] = system: breast cancer cell line MDA-MB-468; assay: In vitro cytotoxicity, MTT proliferation assay, MDA-MB-468; assay type: cell-based, human; details: Breast MDA-MB-468
Procedure: as §4, §5, §3

HTB-138 (Glioma) = assay: In vitro cytotoxicity, MTT proliferation assay, HTB-138; assay type: cell-based, human; details: Glioma HTB-138
Procedure: as §4, §5, §3

[5] = system: human pancreatic cancer cell line, HPAC (CRL-2119); assay: In vitro cytotoxicity, MTT proliferation assay, CRL-2119; assay type: cell-based; details: Pancreatic CRL-2119
Procedure: as §4, §5, §3

NCI-H460 (Lung) = assay: In vitro cytotoxicity, MTT proliferation assay, NCI-H460; assay type: cell-based, human
Procedure: as §4, §5, §3

HT-29 (Colorectal) = assay: In vitro cytotoxicity, MTT proliferation assay, HT-29; assay type: cell-based, human; details: Colorectal HT-29
Procedure: as §4, §5, §3

HCT-15 (Colorectal) = assay: In vitro cytotoxicity, MTT proliferation assay, HCT-15; assay type: cell-based, human; details: Colorectal HCT-15
Procedure: as §4, §5, §3

MM200 (Melanoma) = assay: In vitro cytotoxicity, MTT proliferation assay, MM200; assay type: cell-based, human
Procedure: as §4, §5, §3

MM96L (Melanoma) = assay: In vitro cytotoxicity, MTT proliferation assay, MM96L; assay type: cell-based, human
Procedure: as §4, §5, §3

COc1ccc(C23COc4cc(O)ccc4C2C2c4ccc(O)cc4OCC2c2cc(OC)c(OC)cc23)cc1OC (stereo not shown) [Cpd. 1, 4,9-Dihydroxy-14,15-dimethoxy-12a-(3′,4′-dimethoxyphenyl)-2,11-dioxa-(1H,12H)-6b,6c,12a,16b-tetrahydronaphtho[1,2-g]chrysene]
effect on PGE2 synthesis (PGE2 synthesis): induced
effect on TXB2 synthesis (TXB2 synthesis): inhibited
effect on induction of TNFα (TNFα synthesis): inhibited
effect on PGE2 (PGE2): induced
effect on TXB2 (TXB2): inhibited
inhibition of skin oedema ([1]; 24 hrs post-irradiation): significantly inhibited
Change in skin thickness (mean ± SD, ×0.01 mm) ([1]; 24 hrs post-irradiation, vehicle 78 ± 23): 51 ± 14 ×0.01 mm
Change in skin thickness (mean ± SD, ×0.01 mm) ([1]; 48 hrs post-irradiation, vehicle 147 ± 37): 117 ± 20 ×0.01 mm
effect on B cell proliferation (splenocytes; 10 μM, LPS, 3 day incubation): no effect
enhancement of proliferation of unstimulated splenocytes (splenocytes; 10 μM, no mitogen, significant in 5/6 assays): 25-33%
inhibition at 10 µM (splenocytes; Mus musculus, Splenocyte, 72 h, 10 μM, ConA, 3 day incubation, significant in 4/6 assays, read-out: inhibition of T cell proliferation): 14 to 19%
proliferation compared with vehicle control (splenocytes; higher concentrations (than 10 μM), regardless of mitogenic stimulation): reduced proliferation
Splenocyte viability following three days' culture in the absence of mitogen (unstimulated splenocytes): not affected
reduction in cell numbers compared with vehicle alone (unstimulated splenocytes): 73%
proliferative response to ConA after pre-incubation (unstimulated splenocytes; compound removed): no effect

N.N.[Cl][Pt][Cl] [Cisplatin, cis-diamminedichloroplatinum]
IC50 [2]: 9.85 ± 5 µM
IC50 (A2780 (Ovarian)): 2.1 µM
IC50 [3]: 10.3 µM
IC50 (SKOV-3 (Ovarian)): 5.4 µM
IC50 (PC3 (Prostate)): 2.11 µM
IC50 (LNCaP (Prostate)): > 10 µM
IC50 (DU145 (Prostate)): 2.07 µM
IC50 (MCF-7 (Breast)): 3.69 µM
IC50 [4]: 0.58 µM
IC50 (HTB-138 (Glioma)): 42.3 µM
IC50 [5]: 9.36 µM
IC50 (NCI-H460 (Lung)): 22.3 µM
IC50 (HT-29 (Colorectal)): 22.7 ± 35 µM
IC50 (HCT-15 (Colorectal)): 130 ± 39 µM
IC50 (MM200 (Melanoma)): 8.82 µM
IC50 (MM96L (Melanoma)): 4.6 µM
